Source: ChEMBL document CHEMBL1201862, “PubChem BioAssay data set” (2004)
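48-hour exposure; five concentrations; linearly interpolated endpoints. Abbreviation: GI50, concentration required for 50% inhibition of growth.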 Active and inactive are the calls of the source. Cut-off read from the data, not from the text of the source: active = GI50 up to about 1.1 µM and inactive = higher.

Tests used:
Experiment in all cases: NCI-60 cell line screen, 48 h
HT-29 = test system: HT-29
SF-295 = test system: SF-295
DMS-114 = test system: DMS-114
HL-60 = test system: HL-60
UACC-62 = test system: UACC-62
SF-268 = test system: SF-268
OVCAR-8 = test system: OVCAR-8
M19-MEL = test system: M19-MEL
SF-539 = test system: SF-539
DLD-1 = test system: DLD-1
OVCAR-5 = test system: OVCAR-5
HCT-116 = test system: HCT-116
MDA-N = test system: MDA-N
BT-549 = test system: BT-549
MDA-MB-435 = test system: MDA-MB-435
PC-3 = test system: PC-3
T47D = test system: T47D
Hs-578T = test system: Hs-578T
DU-145 = test system: DU-145
MDA-MB-231 = test system: MDA-MB-231

Measured: GI50

COc1cc(=O)oc(/C=C/C=O)c1C
inactive: HT-29 19.9 µM | SF-295 15.8 µM | DMS-114 12.7 µM | HL-60 13.5 µM | UACC-62 16 µM | SF-268 13.6 µM | OVCAR-8 26.3 µM | M19-MEL 18.1 µM | SF-539 18.7 µM | DLD-1 16 µM | OVCAR-5 38.3 µM | HCT-116 5.21 µM

COC(=O)C1CCC(=O)C(Sc2ccccc2)C1 (configuration not stated)
inactive: HT-29 > 100 µM | SF-295 > 100 µM | DMS-114 68.1 µM | HL-60 34 µM | UACC-62 80.7 µM | SF-268 59.8 µM | OVCAR-8 > 100 µM | M19-MEL 62.1 µM | SF-539 > 100 µM | DLD-1 > 100 µM | OVCAR-5 > 100 µM | HCT-116 > 100 µM

N/C(=N\O)N/N=C/c1cc2c(cc1Cl)OCO2
inactive: HT-29 46.1 µM | SF-295 22.9 µM | DMS-114 > 100 µM | HL-60 13.1 µM | UACC-62 > 50.4 µM | SF-268 25.4 µM | OVCAR-8 40.6 µM | M19-MEL > 56.9 µM | SF-539 31.8 µM | DLD-1 42.8 µM | OVCAR-5 32.5 µM | HCT-116 51.5 µM

Clc1ccc(OC2CCO2)cc1Cl (configuration not stated)
inactive: HT-29 85.5 µM | SF-295 > 100 µM | DMS-114 34.4 µM | HL-60 35.6 µM | UACC-62 72.6 µM | SF-268 78.2 µM | OVCAR-8 96.2 µM | M19-MEL > 100 µM | SF-539 > 100 µM | DLD-1 85.9 µM | OVCAR-5 83.2 µM | HCT-116 33.8 µM

CN(c1ccc(C(=O)c2ccc(N(C)S(C)(=O)=O)cc2)cc1)S(C)(=O)=O
inactive: HT-29 > 100 µM | SF-295 78.2 µM | DMS-114 14.1 µM | HL-60 76.4 µM | UACC-62 > 100 µM | SF-268 > 100 µM | OVCAR-8 > 100 µM | M19-MEL > 100 µM | DLD-1 > 100 µM | OVCAR-5 > 100 µM | HCT-116 > 100 µM

O=c1[nH]cnc2c(COCCCO)c[nH]c12
inactive: HT-29 > 100 µM | SF-295 > 100 µM | DMS-114 > 100 µM | HL-60 > 100 µM | UACC-62 > 100 µM | SF-268 > 100 µM | OVCAR-8 > 100 µM | M19-MEL > 100 µM | DLD-1 > 100 µM | OVCAR-5 61.5 µM | HCT-116 > 100 µM

Clc1cc(Cl)cc(C2SCc3nc4ccccc4n32)c1 (configuration not stated)
inactive: HT-29 12 µM | SF-295 14.5 µM | DMS-114 13.6 µM | HL-60 4.31 µM | UACC-62 21.5 µM | SF-268 20.4 µM | OVCAR-8 17 µM | SF-539 11.1 µM | DLD-1 > 10 µM | OVCAR-5 18.1 µM | HCT-116 > 10 µM

CCCCCCCCCCC(C)CCCCCCC(=O)OCC(COP(=O)([O-])OCC[N+](C)(C)C)OC(=O)CCCCCCC(C)CCCCCCCCCC (configuration not stated)
inactive: HT-29 > 100 µM | SF-295 > 100 µM | DMS-114 > 100 µM | HL-60 > 100 µM | UACC-62 > 100 µM | SF-268 > 100 µM | OVCAR-8 > 100 µM | M19-MEL > 100 µM | DLD-1 > 100 µM | OVCAR-5 > 100 µM | HCT-116 > 100 µM

O=C(NC1CCCCC1)NC12CC3CC(CC(F)(C3)C1)C2
inactive: HT-29 > 100 µM | DMS-114 > 100 µM | HL-60 > 100 µM | UACC-62 > 100 µM | OVCAR-8 > 100 µM | M19-MEL > 100 µM | SF-539 > 100 µM | DLD-1 > 100 µM | OVCAR-5 > 100 µM | HCT-116 > 100 µM

COc1ccc(C(=O)c2c3cc(OC)c(OC)c(OC)c3cc[n+]2C)cc1
inactive: HT-29 30.3 µM | DMS-114 23.7 µM | SF-268 37.9 µM | OVCAR-8 35.7 µM | M19-MEL 24.1 µM | SF-539 > 10 µM | DLD-1 17.1 µM | OVCAR-5 > 100 µM | HCT-116 28 µM

Cc1ccccc1NC(=O)CSc1nnc(Cc2ccccc2)o1
inactive: HT-29 > 100 µM | SF-295 > 100 µM | DMS-114 > 100 µM | UACC-62 > 100 µM | SF-268 > 100 µM | OVCAR-8 > 100 µM | M19-MEL > 100 µM | SF-539 > 100 µM | DLD-1 > 100 µM | OVCAR-5 > 100 µM | HCT-116 > 100 µM

Cn1nc(-c2ccccc2)c(C(=O)/C=C/c2ccccc2)c(N2CCCC2)c1=O
inactive: HT-29 12.6 µM | DMS-114 11.4 µM | HL-60 4.34 µM | UACC-62 13.9 µM | SF-268 13.7 µM | OVCAR-8 16.9 µM | M19-MEL 16.6 µM | SF-539 13.2 µM | DLD-1 12.1 µM | HCT-116 5.94 µM

Cc1ccc(S(=O)(=O)OCCOCCOCCOCCOCCOS(=O)(=O)c2ccc(C)cc2)cc1
inactive: HT-29 28.3 µM | SF-295 50.7 µM | UACC-62 61.4 µM | SF-268 > 100 µM | OVCAR-8 22.6 µM | M19-MEL 30.3 µM | DLD-1 60.8 µM | OVCAR-5 > 100 µM | HCT-116 52.5 µM

C[N+](C)(C)c1ncnc2c1ncn2C1CC(O)C(CO)O1 (configuration not stated)
inactive: HT-29 > 100 µM | SF-295 > 100 µM | MDA-N > 100 µM | HL-60 > 100 µM | UACC-62 > 100 µM | BT-549 > 100 µM | SF-268 > 100 µM | OVCAR-8 > 100 µM | MDA-MB-435 > 100 µM | PC-3 > 100 µM | SF-539 > 100 µM | T47D > 100 µM | Hs-578T > 100 µM | DU-145 > 100 µM | OVCAR-5 > 100 µM | MDA-MB-231 > 100 µM | HCT-116 > 100 µM

CCNC(=S)N/N=C/c1ccccn1
inactive: HT-29 4.47 µM | SF-295 7.14 µM | MDA-N 27.7 µM | HL-60 3.74 µM | UACC-62 9.98 µM | BT-549 20.9 µM | SF-268 2.4 µM | OVCAR-8 3.3 µM | MDA-MB-435 16.3 µM | PC-3 6.95 µM | SF-539 6.7 µM | T47D 1.98 µM | Hs-578T > 100 µM | DU-145 7.13 µM | OVCAR-5 15.4 µM | MDA-MB-231 7.05 µM | HCT-116 8.93 µM

Cn1c(=O)c2[nH]c(/N=N/N3CCN(CCO)CC3)nc2n(C)c1=O
inactive: HT-29 > 100 µM | SF-295 > 100 µM | MDA-N > 100 µM | HL-60 > 100 µM | UACC-62 > 100 µM | BT-549 18.8 µM | SF-268 > 100 µM | OVCAR-8 > 100 µM | MDA-MB-435 > 100 µM | PC-3 > 100 µM | SF-539 > 100 µM | T47D > 100 µM | Hs-578T > 100 µM | DU-145 > 100 µM | OVCAR-5 > 100 µM | MDA-MB-231 > 100 µM | HCT-116 > 100 µM
